From US7482379B2, “Propenoyl hydrazides” (priority 2004, dated 2009)

What was measured:
Gingipain K = Gingipain K (Porphyromonas gingivalis, UniProt Q51817); assay: biochemical; assay type: biochemical
Caspase-7 = target: T1, Caspase-7 (Homo sapiens, UniProt P55210); assay: Caspase-7 progress curve inhibition assay; settings: second-order rate constant; Ac-DEVD-AMC substrate; Pipes buffer pH 7.2
T1 sequence (P55210 24-198 limits assumed): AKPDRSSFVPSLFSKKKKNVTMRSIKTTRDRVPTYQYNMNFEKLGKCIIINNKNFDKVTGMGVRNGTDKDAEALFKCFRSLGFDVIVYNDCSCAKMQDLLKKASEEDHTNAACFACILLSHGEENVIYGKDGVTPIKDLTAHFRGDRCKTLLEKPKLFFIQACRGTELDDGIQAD
T1 sequence (P55210 207-303 limits assumed): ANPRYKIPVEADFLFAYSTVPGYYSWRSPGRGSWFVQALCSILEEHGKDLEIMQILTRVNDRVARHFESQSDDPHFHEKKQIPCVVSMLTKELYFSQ

Caspase-6 = target: T2, Caspase-6 (Homo sapiens, UniProt P55212); assay: Caspase-6 progress curve inhibition assay; settings: second-order rate constant; Ac-DEVD-AMC substrate; Pipes buffer pH 7.2
T2 sequence (P55212 24-179 limits assumed): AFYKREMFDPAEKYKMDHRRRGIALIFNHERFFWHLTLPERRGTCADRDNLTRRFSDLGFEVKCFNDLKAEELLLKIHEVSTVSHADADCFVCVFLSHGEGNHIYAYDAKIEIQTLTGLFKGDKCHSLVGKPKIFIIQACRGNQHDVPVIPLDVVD
T2 sequence (P55212 194-293 limits assumed): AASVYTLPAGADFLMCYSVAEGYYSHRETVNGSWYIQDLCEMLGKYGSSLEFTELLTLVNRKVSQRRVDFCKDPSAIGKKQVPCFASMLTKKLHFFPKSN

Caspase-2 = target: T3, Caspase-2 (Homo sapiens, UniProt P42575); assay: Caspase-2 progress curve inhibition assay; settings: second-order rate constant; Cbz-VDVAD-AFC substrate; Pipes buffer pH 7.2
T3 sequence (P42575 170-333 limits assumed): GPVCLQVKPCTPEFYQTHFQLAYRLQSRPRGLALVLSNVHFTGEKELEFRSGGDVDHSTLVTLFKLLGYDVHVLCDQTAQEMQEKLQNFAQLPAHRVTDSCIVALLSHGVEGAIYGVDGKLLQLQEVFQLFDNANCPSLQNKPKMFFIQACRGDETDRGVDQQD
T3 sequence (P42575 348-452 limits assumed): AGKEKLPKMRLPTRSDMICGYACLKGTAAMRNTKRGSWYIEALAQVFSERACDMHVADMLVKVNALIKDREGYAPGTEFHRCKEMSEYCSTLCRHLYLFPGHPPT
Procedure: Inhibition rates were determined by the progress curve method known in the art. This method is suitable for measuring irreversible inhibition rates with fast inhibitors, where the inhibitor, the substrate and the enzyme are incubated together and the rate of substrate hydrolysis is measured continuously. The rate of substrate hydrolysis in the presence of the inhibitor was monitored for 20 minutes. The progress curve of inhibition, where the product formation approaches an asymptote is described in the equation ln([P∞]−[P])=ln[P∞]−A[I]t where [P] and [P∞] are the product concentrations at t and t=∞ respectively, A is the apparent rate constant in the presence of the substrate. The apparent rate constants were determined from the slopes of plots of ln ([P∞]−[P]) versus time (t) in seconds as previously described, where A=slope/[I].
(§1) For competitive and irreversible inhibition, the apparent rate constant is converted to the second order rate constant k2 by taking into consideration the effect of the substrate concentration on the apparent rate constant. The second order rate constant is described as in the equation: k2=A*(1+[S]/KM)
The concentration of the caspase-3 stock solution was 2 nM in the assay buffer. Assay buffer is a 1:1 mixture of caspase buffer (40 mM Pipes, 200 mM NaCl, 0.2% (w/v) CHAPS, sucrose 20% (w/v)) and 20 mM DTT solution in H2O at pH 7.2. The concentration of the substrate stock solution was 2 mM in DMSO. The enzyme was pre-activated for 10 min at 37° C. in the assay buffer. […] 50 μL of 2 nM enzyme stock solution (final concentration: 1 nM) was added to the mixture after 1 min and reading started immediately for 20 min at 37° C. Inhibition experiments were repeated in duplicate and standard deviations determined.
The inhibitor stock solution concentrations varied from 5×10^−3 M to 1×10^−4 M in DMSO.

Caspase-8 = Caspase-8 (Homo sapiens, UniProt Q14790); assay: Caspase-8 progress curve inhibition assay; settings: second-order rate constant; Ac-DEVD-AMC substrate; Pipes buffer pH 7.2
Chain of Caspase-8 (Q14790 217-374 limits assumed): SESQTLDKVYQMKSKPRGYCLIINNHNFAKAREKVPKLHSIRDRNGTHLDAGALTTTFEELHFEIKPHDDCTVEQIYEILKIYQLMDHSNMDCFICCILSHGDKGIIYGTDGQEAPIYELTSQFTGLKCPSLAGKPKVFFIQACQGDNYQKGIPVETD
Chain of Caspase-8 (Q14790 385-479 limits assumed): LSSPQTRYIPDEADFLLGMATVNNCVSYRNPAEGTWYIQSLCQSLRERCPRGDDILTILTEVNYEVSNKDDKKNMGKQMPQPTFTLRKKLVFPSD

Caspase-9 = target: T4, Caspase-9 (Homo sapiens, UniProt P55211); assay: Caspase-9 progress curve inhibition assay; settings: second-order rate constant; Ac-LEHD-AFC substrate; Hepes buffer pH 7.0 with 0.7 M sodium citrate
T4 sequence (P55211 1-315 limits assumed): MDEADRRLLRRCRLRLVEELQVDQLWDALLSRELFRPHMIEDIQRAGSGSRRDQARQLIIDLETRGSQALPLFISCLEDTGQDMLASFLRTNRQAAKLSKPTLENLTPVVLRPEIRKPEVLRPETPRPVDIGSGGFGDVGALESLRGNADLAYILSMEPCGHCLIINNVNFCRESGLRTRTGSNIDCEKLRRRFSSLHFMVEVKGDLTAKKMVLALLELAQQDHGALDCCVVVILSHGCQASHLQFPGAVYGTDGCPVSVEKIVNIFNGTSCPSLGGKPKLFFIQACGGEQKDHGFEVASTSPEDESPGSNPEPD
T4 sequence (P55211 331-416 limits assumed): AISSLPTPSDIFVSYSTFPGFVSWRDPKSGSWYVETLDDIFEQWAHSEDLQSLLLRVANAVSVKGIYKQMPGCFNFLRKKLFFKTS
Procedure: Caspases-2, -3, -6, -7, -8, -9 and -10 were expressed in E. coli and purified in Guy Salvesen's laboratory at the Burnham Institute, La Jolla, Calif., according to the methods known in the art. Inhibition rates were determined by the progress curve method known in the art. This method is suitable for measuring irreversible inhibition rates with fast inhibitors, where the inhibitor, the substrate and the enzyme are incubated together and the rate of substrate hydrolysis is measured continuously. The rate of substrate hydrolysis in the presence of the inhibitor was monitored for 20 minutes. The progress curve of inhibition, where the product formation approaches an asymptote is described in the equation ln([P∞]−[P])=ln[P∞]−A[I]t where [P] and [P∞] are the product concentrations at t and t=∞ respectively, A is the apparent rate constant in the presence of the substrate. The apparent rate constants were determined from the slopes of plots of ln ([P∞]−[P]) versus time (t) in seconds as previously described, where A=slope/[I].
as §1
Assay buffer is a 1:1 mixture of buffer (200 mM Hepes, 100 mM NaCl, 0.02% (w/v) CHAPS, sucrose 20% (w/v)) and 20 mM DTT solution in H2O at pH 7.0). The assay buffer was supplemented with 0.7 M sodium citrate. The enzyme was pre-activated for 10 min at 37° C. in the assay buffer.

Caspase-10 = target: T5, Caspase-10 (Homo sapiens, UniProt Q92851); assay: Caspase-10 progress curve inhibition assay; settings: second-order rate constant; Ac-DEVD-AMC substrate; Hepes/PEG buffer pH 7.0
T5 sequence (Q92851 220-415 limits assumed): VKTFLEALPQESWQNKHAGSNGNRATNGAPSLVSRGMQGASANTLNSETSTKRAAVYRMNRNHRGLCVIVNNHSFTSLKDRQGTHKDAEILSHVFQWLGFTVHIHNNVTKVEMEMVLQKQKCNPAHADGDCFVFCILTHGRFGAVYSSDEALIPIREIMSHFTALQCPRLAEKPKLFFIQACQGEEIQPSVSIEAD
T5 sequence (Q92851 416-521 limits assumed): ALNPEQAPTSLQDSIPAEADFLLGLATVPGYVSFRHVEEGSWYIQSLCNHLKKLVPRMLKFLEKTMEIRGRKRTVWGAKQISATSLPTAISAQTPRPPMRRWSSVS
Procedure: Caspase-2, -3, -6, -7, -8, -9 and -10. Caspases-2, -3, -6, -7, -8, -9 and -10 were expressed in E. coli and purified in Guy Salvesen's laboratory at the Burnham Institute, La Jolla, Calif., according to the methods known in the art. Inhibition rates were determined by the progress curve method known in the art. This method is suitable for measuring irreversible inhibition rates with fast inhibitors, where the inhibitor, the substrate and the enzyme are incubated together and the rate of substrate hydrolysis is measured continuously. The rate of substrate hydrolysis in the presence of the inhibitor was monitored for 20 minutes. The progress curve of inhibition, where the product formation approaches an asymptote is described in the equation ln([P∞]−[P])=ln[P∞]−A[I]t where [P] and [P∞] are the product concentrations at t and t=∞ respectively, A is the apparent rate constant in the presence of the substrate. The apparent rate constants were determined from the slopes of plots of ln ([P∞]−[P]) versus time (t) in seconds as previously described, where A=slope/[I].
as §1
Assay buffer is a 1:1 mixture of buffer (200 mM Hepes, 0.2% (w/v) CHAPS, PEG 20% (w/v)) and 20 mM DTT solution in H2O at pH 7.0). The enzyme was pre-activated for 10 min at 25° C. in the assay buffer.

Caspase-3 = target: T6, Caspase-3 (Homo sapiens, UniProt P42574); assay: Caspase-3 progress curve inhibition assay; settings: second-order rate constant; Ac-DEVD-AMC substrate; Pipes buffer pH 7.2
T6 sequence (P42574 29-175 limits assumed): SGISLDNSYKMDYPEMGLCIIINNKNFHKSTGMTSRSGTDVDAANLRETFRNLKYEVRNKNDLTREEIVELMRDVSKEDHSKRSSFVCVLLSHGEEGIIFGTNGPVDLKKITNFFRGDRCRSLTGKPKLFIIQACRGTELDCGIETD
T6 sequence (P42574 176-277 limits assumed): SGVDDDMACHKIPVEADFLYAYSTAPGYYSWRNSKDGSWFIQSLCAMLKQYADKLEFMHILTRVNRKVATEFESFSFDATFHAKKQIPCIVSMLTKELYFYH

Chain of Gingipain K (Q51817 229-1732 limits assumed): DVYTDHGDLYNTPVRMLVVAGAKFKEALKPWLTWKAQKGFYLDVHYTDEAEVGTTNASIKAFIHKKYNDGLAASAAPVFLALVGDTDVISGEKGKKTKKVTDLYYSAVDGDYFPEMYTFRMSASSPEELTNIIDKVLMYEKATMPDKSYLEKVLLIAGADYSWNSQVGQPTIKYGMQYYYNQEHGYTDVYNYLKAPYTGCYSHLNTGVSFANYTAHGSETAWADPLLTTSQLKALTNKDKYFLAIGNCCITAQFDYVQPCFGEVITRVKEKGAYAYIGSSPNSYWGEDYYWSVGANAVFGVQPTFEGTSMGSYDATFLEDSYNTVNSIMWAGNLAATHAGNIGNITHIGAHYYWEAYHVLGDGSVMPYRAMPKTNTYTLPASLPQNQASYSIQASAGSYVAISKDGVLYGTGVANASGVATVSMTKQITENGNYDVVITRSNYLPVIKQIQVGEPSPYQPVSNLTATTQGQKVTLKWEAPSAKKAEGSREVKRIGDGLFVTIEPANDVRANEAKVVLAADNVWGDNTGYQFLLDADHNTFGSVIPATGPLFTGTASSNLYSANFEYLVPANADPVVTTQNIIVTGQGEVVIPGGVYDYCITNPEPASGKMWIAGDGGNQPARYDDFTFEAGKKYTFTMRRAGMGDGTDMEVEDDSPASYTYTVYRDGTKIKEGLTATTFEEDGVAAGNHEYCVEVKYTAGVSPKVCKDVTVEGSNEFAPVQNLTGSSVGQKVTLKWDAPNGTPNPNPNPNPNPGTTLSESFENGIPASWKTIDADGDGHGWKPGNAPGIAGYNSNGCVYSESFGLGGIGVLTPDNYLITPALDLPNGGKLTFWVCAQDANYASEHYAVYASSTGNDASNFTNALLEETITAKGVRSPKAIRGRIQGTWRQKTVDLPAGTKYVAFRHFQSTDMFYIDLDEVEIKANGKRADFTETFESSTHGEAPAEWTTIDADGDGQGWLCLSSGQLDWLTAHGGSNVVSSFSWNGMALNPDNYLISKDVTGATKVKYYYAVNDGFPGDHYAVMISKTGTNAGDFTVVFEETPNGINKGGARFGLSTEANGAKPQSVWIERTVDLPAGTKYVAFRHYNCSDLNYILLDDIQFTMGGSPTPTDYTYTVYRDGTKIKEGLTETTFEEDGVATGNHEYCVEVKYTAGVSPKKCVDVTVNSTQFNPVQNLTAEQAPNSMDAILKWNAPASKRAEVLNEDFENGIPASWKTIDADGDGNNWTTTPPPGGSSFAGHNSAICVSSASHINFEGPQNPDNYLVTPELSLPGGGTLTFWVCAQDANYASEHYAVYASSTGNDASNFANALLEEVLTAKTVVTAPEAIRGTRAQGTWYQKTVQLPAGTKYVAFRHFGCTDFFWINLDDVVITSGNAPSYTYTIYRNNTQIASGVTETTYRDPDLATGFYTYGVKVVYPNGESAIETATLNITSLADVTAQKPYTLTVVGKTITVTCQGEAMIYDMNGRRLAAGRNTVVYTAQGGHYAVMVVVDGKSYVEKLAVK

Compound	kinact/KI (Gingipain K; pH 8, read-out: kobs/[I] Gingipain K)	kobs/[I] Gingipain K (Gingipain K; Table 6, legumain specific inhibitors, NI = no inhibition after 20 minutes of incubation)	k2 Caspase-7 (Caspase-7)	k2 Caspase-6 (Caspase-6)	k2 Caspase-2 (Caspase-2)	k2 Caspase-8 (Caspase-8)	k2 Caspase-9 (Caspase-9)	k2 Caspase-10 (Caspase-10)	k2 Caspase-3 (Caspase-3)
C[C@H](NC(=O)OCc1ccccc1)C(=O)N[C@@H](C)C(=O)NN(CC(N)=O)C(=O)/C=C/C(=O)N(C)Cc1ccccc1 [Cbz-Ala-Ala-AAsn-CH═CH—CON(CH3)Bzl, N^2—(N-Benzyloxycarbonylalanylalanyl)-N^1-carbamoylmethyl-N^1-trans-(3-benzylmethylcarbamoylpropenoyl)hydrazine]	1 M⁻¹ s⁻¹	–	–	–	–	–	–	–	–
CC(NC(=O)OCc1ccccc1)C(=O)NC(C)C(=O)NN(CC(N)=O)C(=O)C=CC(=O)N(C)c1ccc2ccccc2c1 (stereo not drawn)	–	6 M⁻¹ s⁻¹	–	–	–	–	–	–	–
CC[C@H](C)[C@H](NC(=O)OCc1ccccc1)C(=O)N[C@@H](CCC(=O)O)C(=O)N[C@H](C(=O)NN(CC(=O)O)C(=O)/C=C/C(=O)N(Cc1ccccc1)Cc1ccccc1)[C@@H](C)O (relative stereo) [Cbz-Ile-Glu-Thr-AAsp-CH═CH—CON(CH2Ph)2, N^2—(N-Benzyloxycarbonylisoleucylglutamylthreonyl)-N^1-carboxylmethyl-N^1-trans-(3-dibenzylcarbamoylpropenoyl)hydrazine]	–	–	1,140 M^−1s^−1	83,900 M^−1s^−1	76 M⁻¹ s⁻¹	39,500 M^−1s^−1	1,930 M^−1s^−1	7,930 M^−1s^−1	9,570 M^−1s^−1
CC[C@H](C)[C@H](NC(=O)OCc1ccccc1)C(=O)N[C@@H](CCC(=O)O)C(=O)N[C@H](C(=O)NN(CC(=O)O)C(=O)/C=C/C(=O)NCc1ccccc1)[C@@H](C)O (relative stereo) [Cbz-Ile-Glu-Thr-AAsp-CH═CH—CONHCH2Ph, N^1-trans-(3-Benzylcarbamoylpropenoyl)-N^2—(N-benzyloxycarbonylisoleucylglutamylthreonyl)-N^1-carboxylmethylhydrazine]	–	–	100 M⁻¹ s⁻¹	16,800 M^−1s^−1	15 M⁻¹ s⁻¹	61,300 M^−1s^−1	440 M⁻¹ s⁻¹	503 M⁻¹ s⁻¹	2,250 M^−1s^−1
CC(C)C[C@H](NC(=O)OCc1ccccc1)C(=O)N[C@@H](CCC(=O)O)C(=O)N[C@H](C(=O)NN(CC(=O)O)C(=O)/C=C/C(=O)NCCc1ccccc1)[C@@H](C)O (relative stereo) [Cbz-Leu-Glu-Thr-AAsp-CH═CH—CONHCH2CH2Ph, N^2—(N-Benzyloxycarbonylleucylglutamylthreonyl)-N^1-carboxylmethyl-N^1-trans-(3-phenylethylcarbamoylpropenoyl)hydrazine]	–	–	440 M⁻¹ s⁻¹	2,150 M^−1s^−1	110 M⁻¹ s⁻¹	121,000 M^−1s^−1	1,760 M^−1s^−1	17,900 M^−1s^−1	5,400 M^−1s^−1
CC(C)C[C@H](NC(=O)OCc1ccccc1)C(=O)N[C@@H](CCC(=O)O)C(=O)N[C@H](C(=O)NN(CC(=O)O)C(=O)/C=C/C(=O)N(Cc1ccccc1)Cc1ccccc1)[C@@H](C)O (relative stereo) [Cbz-Leu-Glu-Thr-AAsp-CH═CH—CON(CH2Ph)2, N^2—(N-Benzyloxycarbonylleucylglutamylthreonyl)-N^1-carboxylmethyl-N^1-trans-(3-dibenzylcarbamoylpropenoyl)hydrazine]	–	–	760 M⁻¹ s⁻¹	14,100 M^−1s^−1	110 M⁻¹ s⁻¹	129,000 M^−1s^−1	1,105 M^−1s^−1	8,080 M^−1s^−1	8,630 M^−1s^−1
CC(C)C[C@H](NC(=O)OCc1ccccc1)C(=O)N[C@@H](CCC(=O)O)C(=O)N[C@H](C(=O)NN(CC(=O)O)C(=O)/C=C/C(=O)NCc1ccc(F)cc1)[C@@H](C)O (relative stereo) [N^2—(N-Benzyloxycarbonylleucylglutamylthreonyl)-N^1-carboxylmethyl-N^1-trans-(3-(4-fluorobenzyl)carbamoylpropenoyl)hydrazine]	–	–	410 M⁻¹ s⁻¹	3,100 M^−1s^−1	70 M⁻¹ s⁻¹	171,000 M^−1s^−1	1,695 M^−1s^−1	9,380 M^−1s^−1	4,490 M^−1s^−1
CC(C)[C@H](NC(=O)[C@H](CCC(=O)O)NC(=O)[C@H](CC(=O)O)NC(=O)OCc1ccccc1)C(=O)NN(CC(=O)O)C(=O)/C=C/C(=O)N(C)CCc1ccccc1 (relative stereo) [N^2—(N-Benzyloxycarbonylaspartylglutamylvalyl)-N^1-carboxymethyl-N^1-trans-(3-phenethylmethylcarbamoylpropenoyl)hydrazine]	–	–	172,000 M^−1s^−1	4,000 M^−1s^−1	320 M⁻¹ s⁻¹	31,900 M^−1s^−1	425 M⁻¹ s⁻¹	9,570 M^−1s^−1	1,180,000 M^−1s^−1
CC(C)[C@H](NC(=O)[C@H](CCC(=O)O)NC(=O)[C@H](CC(=O)O)NC(=O)OCc1ccccc1)C(=O)NN(CC(=O)O)C(=O)/C=C/C(=O)NCc1ccccc1 (relative stereo) [Cbz-Asp-Glu-Val-AAsp-CH═CH—CONHCH2Ph, N^1-trans-(3-Benzylcarbamoylpropenoyl)-N^2—(N-benzyloxycarbonylaspartylglutamylvalyl)-N^1-carboxymethylhydrazine]	–	–	249,000 M^−1s^−1	3,210 M^−1s^−1	130 M⁻¹ s⁻¹	78,235 M^−1s^−1	2,010 M^−1s^−1	19,400 M^−1s^−1	1,750,000 M^−1s^−1
